Measured values published in patent publication US20260027068A1, “METHODS OF ADM[…]-KETAMINE” (Perception Neuroscience, Inc., priority 2022, published 2026).

Assays:
[1] = Diastolic blood pressure (vital signs)
Protocol: The Investigational Medicinal Product (IMP) R(−)-ketamine hydrochloride in sterile water for intravenous injection was investigated as an […] treatment of TRD. The International Union of Pure and Applied Chemistry (IUPAC) name is of the IMP is (2R)-2-(2-chlorophenyl)-2-(methylamino)cyclohexan-1-one. Subjects received the solution at either 30 mg or 60 mg dose, or a placebo. The IMP or placebo was administered on Day 1 as a single IV infusion via an electronic infusion pump over 40 minutes. The duration of study participation for each subject was up to 29 days including a screening period, a 3-day in-clinic visit, and 2 follow-up visits. 101 subjects were enrolled in approximately 20 study centers in the EU and the US.
Tympanic or temporal temperature, heart rate, blood pressure (SBP/DBP), respiratory rate, and SpO2 were assessed. Blood pressure and pulse measurements will be assessed with a completely automated device while the subject is supine or semi-supine. Manual techniques will be used only if an automated device is not available. Blood pressure and pulse measurements should be preceded by at least 5 minutes of rest for the subject in a quiet setting without distractions (e.g., television, cell phones). An abnormal blood pressure value at screening may be repeated once after 5 minutes of relaxation to determine the subject's eligibility. Blood pressure was recorded using the same arm and position (supine or semi-supine) throughout the study, where possible. Vital signs (to be taken before blood collection for laboratory tests) consisted of 1 pulse and 3 blood pressure measurements (3 consecutive blood pressure readings will be recorded at intervals of at least 1 minute). The average of the 3 blood pressure readings was recorded in the CRF. A pulse oximeter was used to measure peripheral capillary oxygen saturation (SpO2) continuously from pre-dose until 4-hours post-dose. A pulse oximeter was clipped onto the finger or foot of the subject, and light will be sent through the finger or foot and measured on the other side.
In these tables, baseline value is defined as the last non-missing value prior to study drug administration.

[2] = system: rats; test: Precipitated withdrawal from morphine; format: in vivo
[3] = system: subjects with TRD; conditions: single IV infusion 0.5 mg/kg; 7 subjects with TRD; cited from earlier work
[4] = system: CYP1A2; test: In vitro CYP induction
[5] = system: rats; test: Anhedonic or negative affective side effects
[6] = Phase 1 single ascending dose plasma pharmacokinetics of 40-minute IV infusion of R(−)-ketamine and its metabolites; conditions: for Tmax: all dose levels 5 mg to 150 mg; for AUC(0-inf) / Cmax / AUC(0-t): iv
Protocol: This was a Phase 1 randomized, placebo-controlled, double-blind, single dose study conducted at one center. […] The pharmacokinetic (PK) population was 36 subjects, with 12 additional subjects receiving placebo. […] Subjects were male or female healthy subjects, 18 to 65 years of age. […] Cohort 1 was dosed at 5 mg, followed by Cohort 2 at 15 mg, Cohort 3 at 30 mg, Cohort 4 at 60 mg, Cohort 5 at 100 mg, and Cohort 6 at 150 mg R(−)-ketamine. […] In addition to the safety and tolerability data, the study also evaluated the dose-related PK of each 40-minute IV infusion of R(−)-ketamine.
To evaluate the pharmacokinetics of R(−)-ketamine, blood was drawn from subjects for PK analysis at the following sampling times: pre-dose (−30 minutes); and from the start of infusion (5, 10, and 15 minutes [±1 minute], 30 minutes [±5 minutes], 40 minutes [immediately prior to infusion completion], 1, 1.5, 2, and 3 hours [±5 minutes], 4 and 8 hours [±10 minutes], 12 and 24 hours [±15 minutes]).
Plasma PK parameters of R(−)-ketamine and its metabolites (norketamine, 6-hydroxynorketamine, and dehydronorketamine) evaluated on include the following: • Maximum plasma concentration (Cmax), • Time to Cmax (Tmax), • Area under the plasma concentration curve (AUC0-t, AUC0-∞) • Elimination rate constant (λz), • Half-live (t½) • Clearance (CL, P R(−)-ketamine only), • Volume of distribution (Vz, R(−)-ketamine only), and • Metabolite to parent ratios (area under curve [AUC] and Cmax).
The dose proportionality was assessed both visually and statistically using calculated Cmax and AUC values. […] Continuous variables: Descriptive statistics included the number of non-missing values (n), arithmetic mean, standard deviation (SD), median, minimum, and maximum values. […] For PK concentration data, the number of non-missing values, number of below limit of quantification (BLQ) values, arithmetic mean, SD, median, minimum, maximum, coefficient of variation (CV %), geometric mean, and geometric CV (geo CV %) values are presented. For PK parameter data, the number of non-missing values, arithmetic mean, SD, median, minimum, maximum, CV %, geometric mean, and geometric CV (geo CV %) values are presented.
Intravenous administration of allocated blinded study drug (Morning, Day 1) was infused over 40 minutes. Blood collection for plasma PK analysis occurred at infusion 5, 10, 15, 30, 40, 60, and 90 minutes, and 2, 3, 4, 8, and 12 hours after the start of infusion.
Plasma concentrations of R(−)-ketamine and its metabolites norketamine, 6-hydroxynorketamine, and dehydronorketamine were determined using a suitable validated analytical method with a lower limit of quantitation (LOQ) of 1 ng/mL.
The linearity of the increase in exposure with respect to the increasing dose administered was evaluated for Cmax and AUC for R(−)-ketamine and its metabolites (norketamine, 6-hydroxynorketamine and dehydronorketamine). […] The power model was used to estimate the slope parameter and the 90% confidence intervals for the slope.

[7] = both, human, plasma, intravenous

## CN[C@@]1(c2ccccc2Cl)CCCCC1=O.Cl [R(−)-ketamine, (2R)-2-(2-chlorophenyl)-2-(methylamino)cyclohexan-1-one]
[1]; 30 mg
  Subjects with change from baseline diastolic blood pressure >25 mmHg, number: 1 n
  Subjects with change from baseline diastolic blood pressure >25 mmHg, percent: 3.0%
  Subjects with post-baseline diastolic blood pressure >110 mmHg, number: 0 n
  Subjects with post-baseline diastolic blood pressure >110 mmHg, percent: 0.0%
[1]; 30 mg, Day 1, 15 minutes
  Diastolic Blood Pressure: Mean: 77.4 mmHg
  Diastolic Blood Pressure: Median: 79.0 mmHg
[1]; 30 mg, Day 1, 40 minutes
  Diastolic Blood Pressure: Mean: 77.7 mmHg
  Diastolic Blood Pressure: Median: 81.0 mmHg
[1]; 30 mg, Day 1, 60 minutes
  Diastolic Blood Pressure: Mean: 75.4 mmHg
  Diastolic Blood Pressure: Median: 75.0 mmHg
[1]; 30 mg, Day 1, 2 hours
  Diastolic Blood Pressure: Mean: 77.3 mmHg
  Diastolic Blood Pressure: Median: 78.0 mmHg
[1]; 30 mg, Day 1, 4 hours
  Diastolic Blood Pressure: Mean: 76.1 mmHg
  Diastolic Blood Pressure: Median: 76.0 mmHg
[1]; 30 mg, Day 1, 6 hours
  Diastolic Blood Pressure: Mean: 75.2 mmHg
  Diastolic Blood Pressure: Median: 75.0 mmHg
[1]; 30 mg, Day 2 - Discharge
  Diastolic Blood Pressure: Mean: 74.7 mmHg
  Diastolic Blood Pressure: Median: 75.0 mmHg
[1]; 30 mg, Day 8
  Diastolic Blood Pressure: Mean: 75.8 mmHg
  Diastolic Blood Pressure: Median: 78.0 mmHg
[1]; 30 mg, Day 15
  Diastolic Blood Pressure: Mean: 78.9 mmHg
  Diastolic Blood Pressure: Median: 79.0 mmHg
[1]; 30 mg, to Day 1, 15 minutes
  Diastolic Blood Pressure: Change from Baseline, Mean: 0.5 mmHg
  Diastolic Blood Pressure: Change from Baseline, Median: 2.0 mmHg
[1]; 30 mg, to Day 1, 40 minutes
  Diastolic Blood Pressure: Change from Baseline, Mean: 1.0 mmHg
  Diastolic Blood Pressure: Change from Baseline, Median: 1.0 mmHg
[1]; 30 mg, to Day 1, 60 minutes
  Diastolic Blood Pressure: Change from Baseline, Mean: −1.2 mmHg
  Diastolic Blood Pressure: Change from Baseline, Median: −1.5 mmHg
[1]; 30 mg, to Day 1, 2 hours
  Diastolic Blood Pressure: Change from Baseline, Mean: 0.5 mmHg
  Diastolic Blood Pressure: Change from Baseline, Median: −1.0 mmHg
[1]; 30 mg, to Day 1, 4 hours
  Diastolic Blood Pressure: Change from Baseline, Mean: −0.6 mmHg
  Diastolic Blood Pressure: Change from Baseline, Median: −1.0 mmHg
[1]; 30 mg, to Day 1, 6 hours
  Diastolic Blood Pressure: Change from Baseline, Mean: −1.5 mmHg
  Diastolic Blood Pressure: Change from Baseline, Median: −3.0 mmHg
[1]; 30 mg, to Day 2 - Discharge
  Diastolic Blood Pressure: Change from Baseline, Mean: −2.0 mmHg
  Diastolic Blood Pressure: Change from Baseline, Median: −2.0 mmHg
[1]; 30 mg, to Day 8
  Diastolic Blood Pressure: Change from Baseline, Mean: −1.0 mmHg
  Diastolic Blood Pressure: Change from Baseline, Median: −1.0 mmHg
[1]; 30 mg, to Day 15
  Diastolic Blood Pressure: Change from Baseline, Mean: 2.1 mmHg
  Diastolic Blood Pressure: Change from Baseline, Median: 1.0 mmHg
[1]; 60 mg
  Subjects with change from baseline diastolic blood pressure >25 mmHg, number: 1 n
  Subjects with change from baseline diastolic blood pressure >25 mmHg, percent: 2.9%
  Subjects with post-baseline diastolic blood pressure >110 mmHg, number: 0 n
  Subjects with post-baseline diastolic blood pressure >110 mmHg, percent: 0.0%
[1]; 60 mg, Day 1, 15 minutes
  Diastolic Blood Pressure: Mean: 78.8 mmHg
  Diastolic Blood Pressure: Median: 79.5 mmHg
[1]; 60 mg, Day 1, 40 minutes
  Diastolic Blood Pressure: Mean: 78.1 mmHg
  Diastolic Blood Pressure: Median: 78.0 mmHg
[1]; 60 mg, Day 1, 60 minutes
  Diastolic Blood Pressure: Mean: 79.5 mmHg
  Diastolic Blood Pressure: Median: 77.0 mmHg
[1]; 60 mg, Day 1, 2 hours
  Diastolic Blood Pressure: Mean: 75.7 mmHg
  Diastolic Blood Pressure: Median: 75.0 mmHg
[1]; 60 mg, Day 1, 4 hours
  Diastolic Blood Pressure: Mean: 75.1 mmHg
  Diastolic Blood Pressure: Median: 74.0 mmHg
[1]; 60 mg, Day 1, 6 hours
  Diastolic Blood Pressure: Mean: 75.8 mmHg
  Diastolic Blood Pressure: Median: 76.5 mmHg
[1]; 60 mg, Day 2 - Discharge
  Diastolic Blood Pressure: Mean: 77.2 mmHg
  Diastolic Blood Pressure: Median: 77.0 mmHg
[1]; 60 mg, Day 8
  Diastolic Blood Pressure: Mean: 78.7 mmHg
  Diastolic Blood Pressure: Median: 78.0 mmHg
[1]; 60 mg, Day 15
  Diastolic Blood Pressure: Mean: 77.5 mmHg
  Diastolic Blood Pressure: Median: 78.0 mmHg
[1]; 60 mg, to Day 1, 15 minutes
  Diastolic Blood Pressure: Change from Baseline, Mean: 2.2 mmHg
  Diastolic Blood Pressure: Change from Baseline, Median: 1.5 mmHg
[1]; 60 mg, to Day 1, 40 minutes
  Diastolic Blood Pressure: Change from Baseline, Mean: 2.4 mmHg
  Diastolic Blood Pressure: Change from Baseline, Median: 2.0 mmHg
[1]; 60 mg, to Day 1, 60 minutes
  Diastolic Blood Pressure: Change from Baseline, Mean: 3.2 mmHg
  Diastolic Blood Pressure: Change from Baseline, Median: 4.0 mmHg
[1]; 60 mg, to Day 1, 2 hours
  Diastolic Blood Pressure: Change from Baseline, Mean: −0.1 mmHg
  Diastolic Blood Pressure: Change from Baseline, Median: 0.0 mmHg
[1]; 60 mg, to Day 1, 4 hours
  Diastolic Blood Pressure: Change from Baseline, Mean: −0.6 mmHg
  Diastolic Blood Pressure: Change from Baseline, Median: 0.0 mmHg
[1]; 60 mg, to Day 1, 6 hours
  Diastolic Blood Pressure: Change from Baseline, Mean: −0.0 mmHg
  Diastolic Blood Pressure: Change from Baseline, Median: −1.0 mmHg
[1]; 60 mg, to Day 2 - Discharge
  Diastolic Blood Pressure: Change from Baseline, Mean: 1.5 mmHg
  Diastolic Blood Pressure: Change from Baseline, Median: 1.0 mmHg
[1]; 60 mg, to Day 8
  Diastolic Blood Pressure: Change from Baseline, Mean: 3.0 mmHg
  Diastolic Blood Pressure: Change from Baseline, Median: 3.0 mmHg
[1]; 60 mg, to Day 15
  Diastolic Blood Pressure: Change from Baseline, Mean: 1.7 mmHg
  Diastolic Blood Pressure: Change from Baseline, Median: 1.0 mmHg
[2]
  Effect on symptoms of precipitated withdrawal from morphine: significantly ameliorated the symptoms of precipitated withdrawal from morphine
[3]
  Antidepressant effects and safety profile: fast-onset and sustained antidepressant effects with a favorable safety profile
[4]
  CYP1A2 induction: inducer
[5]
  Anhedonic or negative affective side effects: no anhedonic or negative affective side effects
[6]; after start of infusion, LOQ 1 ng/mL
  Earliest timepoint at which concentrations were quantifiable in all subjects: 5 min
[6]; [7]
  Vd: 345 to 921 L
  clearance: 1280 to 1630 mL/min
  half-life: 184 to 433 min
[6]; both, human, plasma, intravenous, Median plasma Tmax
  Tmax: 40 min
[6]; both, human, plasma, intravenous, Plasma Tmax range
  Tmax: 15 to 40 min
[6]; both, human, plasma, 5 mg
  AUC(0-inf): 64 ng·h/mL
  Cmax: 33.9 ng/mL
[6]; both, human, plasma, 5 mg, Arithmetic mean AUC0-24h, 5 mg R(−)-ketamine IV
  AUC(0-t): 63.5 ng·h/mL
[6]; both, human, plasma, 5 mg, Arithmetic mean AUC0-t, 5 mg R(−)-ketamine IV
  AUC(0-t): 57.5 ng·h/mL
[6]; both, human, plasma, 150 mg
  AUC(0-inf): 1820 ng·h/mL
  Cmax: 780 ng/mL
[6]; both, human, plasma, 150 mg, Arithmetic mean AUC0-24h, 150 mg R(−)-ketamine IV
  AUC(0-t): 1720 ng·h/mL
[6]; both, human, plasma, 150 mg, Arithmetic mean AUC0-t, 150 mg R(−)-ketamine IV
  AUC(0-t): 1720 ng·h/mL
